Source: ChEMBL document CHEMBL4507286 (2021)

How the values were obtained:
[1] = tested on: Tyrosine-protein kinase ABL1 (Homo sapiens), P00519 [F317I]
[2] = tested on: Tyrosine-protein kinase ABL1 (Homo sapiens), P00519 [Q252H]
[3] = tested on: Tyrosine-protein kinase ABL1 (Homo sapiens), P00519 [T315I]
[4] = tested on: ALK tyrosine kinase receptor (Homo sapiens), Q9UM73 [C1156Y]
[5] = target: 5'-AMP-activated protein kinase catalytic subunit alpha-2 (Homo sapiens) (UniProt P54646)
[6] = target: NUAK family SNF1-like kinase 1 (Homo sapiens) (UniProt O60285)
[7] = target: Aurora kinase B (Homo sapiens) (UniProt Q96GD4)
[8] = target: Bone morphogenetic protein receptor type-1A (Homo sapiens) (UniProt P36894)
Chain of Bone morphogenetic protein receptor type-1A (Homo sapiens) (P36894 whole entry): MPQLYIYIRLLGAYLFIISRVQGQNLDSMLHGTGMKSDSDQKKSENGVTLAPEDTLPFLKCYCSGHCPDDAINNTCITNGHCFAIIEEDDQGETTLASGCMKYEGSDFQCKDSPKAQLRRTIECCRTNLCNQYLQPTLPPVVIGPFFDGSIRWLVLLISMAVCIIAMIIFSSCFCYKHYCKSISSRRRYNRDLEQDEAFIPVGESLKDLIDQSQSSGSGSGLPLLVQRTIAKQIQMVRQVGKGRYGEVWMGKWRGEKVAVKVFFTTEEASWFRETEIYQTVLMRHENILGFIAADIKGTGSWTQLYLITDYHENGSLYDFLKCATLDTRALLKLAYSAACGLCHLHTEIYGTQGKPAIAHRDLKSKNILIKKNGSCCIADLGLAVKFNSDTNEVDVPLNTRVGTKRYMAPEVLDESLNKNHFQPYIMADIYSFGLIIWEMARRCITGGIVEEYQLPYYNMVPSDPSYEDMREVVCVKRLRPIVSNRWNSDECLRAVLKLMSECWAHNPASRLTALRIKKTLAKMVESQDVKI

[9] = target: Serine/threonine-protein kinase BRSK1 (Homo sapiens) (UniProt Q8TDC3)
[10] = target: Calcium/calmodulin-dependent protein kinase type II subunit delta (Homo sapiens) (UniProt Q13557)
[11] = target: Cyclin-dependent kinase-like 3 (Homo sapiens) (UniProt Q8IVW4)
[12] = target: Myotonin-protein kinase (Homo sapiens) (UniProt Q09013)
[13] = target: Ephrin type-B receptor 6 (Homo sapiens) (UniProt O15197)
[14] = target: Serine/threonine-protein kinase/endoribonuclease IRE1 (Homo sapiens) (UniProt O75460)
Chain of Serine/threonine-protein kinase/endoribonuclease IRE1 (Homo sapiens) (O75460 19-977 limits assumed): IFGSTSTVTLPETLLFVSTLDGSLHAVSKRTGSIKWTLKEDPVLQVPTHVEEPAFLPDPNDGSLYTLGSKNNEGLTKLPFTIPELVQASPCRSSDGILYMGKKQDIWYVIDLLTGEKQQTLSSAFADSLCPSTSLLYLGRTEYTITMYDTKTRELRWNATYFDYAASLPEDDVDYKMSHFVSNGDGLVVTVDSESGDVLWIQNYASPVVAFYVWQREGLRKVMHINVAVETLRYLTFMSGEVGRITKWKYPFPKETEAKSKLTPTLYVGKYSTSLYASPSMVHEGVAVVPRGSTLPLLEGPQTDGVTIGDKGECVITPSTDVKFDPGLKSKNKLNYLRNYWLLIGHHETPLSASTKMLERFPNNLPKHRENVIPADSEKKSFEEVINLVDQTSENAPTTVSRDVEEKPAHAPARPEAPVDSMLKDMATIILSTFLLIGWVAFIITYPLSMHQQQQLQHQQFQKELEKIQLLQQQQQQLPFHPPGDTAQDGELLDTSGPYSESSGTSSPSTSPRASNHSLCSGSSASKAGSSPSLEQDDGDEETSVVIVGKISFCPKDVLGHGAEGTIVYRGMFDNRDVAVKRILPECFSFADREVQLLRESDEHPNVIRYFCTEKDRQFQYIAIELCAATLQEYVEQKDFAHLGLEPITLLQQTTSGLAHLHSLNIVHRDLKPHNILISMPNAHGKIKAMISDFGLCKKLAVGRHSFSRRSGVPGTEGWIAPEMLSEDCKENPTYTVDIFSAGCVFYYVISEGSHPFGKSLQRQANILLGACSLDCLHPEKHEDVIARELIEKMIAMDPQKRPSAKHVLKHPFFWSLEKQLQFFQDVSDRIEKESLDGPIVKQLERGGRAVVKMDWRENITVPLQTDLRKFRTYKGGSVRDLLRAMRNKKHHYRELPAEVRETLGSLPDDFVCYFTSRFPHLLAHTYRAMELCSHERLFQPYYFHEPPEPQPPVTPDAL

[15] = tested on: Receptor-type tyrosine-protein kinase FLT3 (Homo sapiens), P36888 [D835H]
[16] = tested on: Receptor-type tyrosine-protein kinase FLT3 (Homo sapiens), P36888 [UNDEFINED MUTATION]
[17] = target: Homeodomain-interacting protein kinase 4 (Homo sapiens) (UniProt Q8NE63)
Chain of Homeodomain-interacting protein kinase 4 (Homo sapiens) (Q8NE63 whole entry): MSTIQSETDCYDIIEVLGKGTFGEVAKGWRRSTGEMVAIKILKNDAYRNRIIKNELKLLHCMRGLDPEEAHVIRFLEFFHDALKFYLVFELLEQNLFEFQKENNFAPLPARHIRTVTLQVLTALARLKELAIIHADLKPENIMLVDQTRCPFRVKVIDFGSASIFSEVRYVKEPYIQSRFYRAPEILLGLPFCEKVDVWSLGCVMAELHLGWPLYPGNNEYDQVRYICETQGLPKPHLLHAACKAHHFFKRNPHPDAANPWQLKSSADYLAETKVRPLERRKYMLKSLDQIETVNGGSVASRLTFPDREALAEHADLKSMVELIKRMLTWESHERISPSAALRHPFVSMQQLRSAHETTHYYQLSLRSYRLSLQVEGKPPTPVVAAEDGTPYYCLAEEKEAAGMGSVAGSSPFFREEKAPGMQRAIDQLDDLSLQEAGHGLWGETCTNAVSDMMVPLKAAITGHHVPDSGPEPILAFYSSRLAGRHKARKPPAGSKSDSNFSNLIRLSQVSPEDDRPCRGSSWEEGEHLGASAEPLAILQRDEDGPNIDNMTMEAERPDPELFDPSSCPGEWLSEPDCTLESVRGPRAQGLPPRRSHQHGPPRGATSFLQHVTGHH

[18] = target: Inhibitor of nuclear factor kappa-B kinase subunit alpha (Homo sapiens) (UniProt O15111)
[19] = target: Insulin receptor-related protein (Homo sapiens) (UniProt P14616)
[20] = tested on: Mast/stem cell growth factor receptor Kit (Homo sapiens), P10721 [D816V]
[21] = target: Serine/threonine-protein kinase LATS2 (Homo sapiens) (UniProt Q9NRM7)
[22] = target: Serine/threonine-protein kinase 10 (Homo sapiens) (UniProt O94804)
Chain of Serine/threonine-protein kinase 10 (Homo sapiens) (O94804 whole entry, looked up): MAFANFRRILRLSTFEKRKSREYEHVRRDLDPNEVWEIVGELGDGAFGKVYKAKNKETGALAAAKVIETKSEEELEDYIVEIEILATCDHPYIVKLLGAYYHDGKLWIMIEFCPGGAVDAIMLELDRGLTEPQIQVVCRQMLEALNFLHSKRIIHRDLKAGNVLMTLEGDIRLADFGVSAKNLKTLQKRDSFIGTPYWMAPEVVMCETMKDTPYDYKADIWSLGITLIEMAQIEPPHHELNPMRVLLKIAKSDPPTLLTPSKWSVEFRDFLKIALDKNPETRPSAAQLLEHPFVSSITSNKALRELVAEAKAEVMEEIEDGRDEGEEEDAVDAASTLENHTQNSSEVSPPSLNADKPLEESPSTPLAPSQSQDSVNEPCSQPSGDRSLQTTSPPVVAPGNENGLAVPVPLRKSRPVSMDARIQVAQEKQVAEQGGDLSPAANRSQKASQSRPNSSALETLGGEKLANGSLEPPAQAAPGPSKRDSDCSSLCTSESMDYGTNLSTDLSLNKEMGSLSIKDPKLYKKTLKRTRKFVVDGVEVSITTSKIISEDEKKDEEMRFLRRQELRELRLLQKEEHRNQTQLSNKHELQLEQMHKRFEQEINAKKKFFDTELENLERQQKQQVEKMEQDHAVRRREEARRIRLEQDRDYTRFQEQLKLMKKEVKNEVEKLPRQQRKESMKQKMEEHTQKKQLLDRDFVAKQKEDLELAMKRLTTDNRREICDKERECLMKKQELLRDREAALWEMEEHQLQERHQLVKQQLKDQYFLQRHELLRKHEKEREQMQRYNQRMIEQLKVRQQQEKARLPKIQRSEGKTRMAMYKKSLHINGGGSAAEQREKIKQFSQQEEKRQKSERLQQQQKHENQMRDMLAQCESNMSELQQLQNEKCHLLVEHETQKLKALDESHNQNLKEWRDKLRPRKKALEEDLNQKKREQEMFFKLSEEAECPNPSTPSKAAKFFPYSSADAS

[23] = target: Tyrosine-protein kinase Mer (Homo sapiens) (UniProt Q12866)
[24] = target: MAP kinase-interacting serine/threonine-protein kinase 1 (Homo sapiens) (UniProt Q9BUB5)
[25] = target: Serine/threonine-protein kinase 4 (Homo sapiens) (UniProt Q13043)
[26] = target: Myosin light chain kinase, smooth muscle (Homo sapiens) (UniProt Q15746)
[27] = target: Myosin light chain kinase family member 4 (Homo sapiens) (UniProt Q86YV6)
[28] = target: Serine/threonine-protein kinase 38-like (Homo sapiens) (UniProt Q9Y2H1)
[29] = target: Serine/threonine-protein kinase Nek1 (Homo sapiens) (UniProt Q96PY6)
[30] = target: Serine/threonine-protein kinase Nek6 (Homo sapiens) (UniProt Q9HC98)
Chain of Serine/threonine-protein kinase Nek6 (Homo sapiens) (Q9HC98 whole entry): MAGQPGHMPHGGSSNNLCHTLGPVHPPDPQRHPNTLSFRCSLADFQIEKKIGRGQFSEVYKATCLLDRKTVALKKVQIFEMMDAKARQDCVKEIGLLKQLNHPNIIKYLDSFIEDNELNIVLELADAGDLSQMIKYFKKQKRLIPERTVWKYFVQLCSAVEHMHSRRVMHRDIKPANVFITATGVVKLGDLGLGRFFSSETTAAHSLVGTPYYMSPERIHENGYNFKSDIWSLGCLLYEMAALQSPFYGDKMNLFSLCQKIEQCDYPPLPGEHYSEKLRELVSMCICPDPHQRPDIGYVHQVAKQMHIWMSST

[31] = target: Serine/threonine-protein kinase PAK 3 (Homo sapiens) (UniProt O75914)
[32] = target: 1-phosphatidylinositol 3-phosphate 5-kinase (Homo sapiens) (UniProt Q9Y2I7)
[33] = target: Serine/threonine-protein kinase PLK3 (Homo sapiens) (UniProt Q9H4B4)
[34] = target: Protein kinase C delta type (Homo sapiens) (UniProt Q05655)
[35] = target: Serine/threonine-protein kinase D3 (Homo sapiens) (UniProt O94806)
[36] = target: Serine/threonine-protein kinase PRP4 homolog (Homo sapiens) (UniProt Q13523)
[37] = target: Serine/threonine-protein kinase SIK3 (Homo sapiens) (UniProt Q9Y2K2)
Chain of Serine/threonine-protein kinase SIK3 (Homo sapiens) (Q9Y2K2 whole entry, looked up): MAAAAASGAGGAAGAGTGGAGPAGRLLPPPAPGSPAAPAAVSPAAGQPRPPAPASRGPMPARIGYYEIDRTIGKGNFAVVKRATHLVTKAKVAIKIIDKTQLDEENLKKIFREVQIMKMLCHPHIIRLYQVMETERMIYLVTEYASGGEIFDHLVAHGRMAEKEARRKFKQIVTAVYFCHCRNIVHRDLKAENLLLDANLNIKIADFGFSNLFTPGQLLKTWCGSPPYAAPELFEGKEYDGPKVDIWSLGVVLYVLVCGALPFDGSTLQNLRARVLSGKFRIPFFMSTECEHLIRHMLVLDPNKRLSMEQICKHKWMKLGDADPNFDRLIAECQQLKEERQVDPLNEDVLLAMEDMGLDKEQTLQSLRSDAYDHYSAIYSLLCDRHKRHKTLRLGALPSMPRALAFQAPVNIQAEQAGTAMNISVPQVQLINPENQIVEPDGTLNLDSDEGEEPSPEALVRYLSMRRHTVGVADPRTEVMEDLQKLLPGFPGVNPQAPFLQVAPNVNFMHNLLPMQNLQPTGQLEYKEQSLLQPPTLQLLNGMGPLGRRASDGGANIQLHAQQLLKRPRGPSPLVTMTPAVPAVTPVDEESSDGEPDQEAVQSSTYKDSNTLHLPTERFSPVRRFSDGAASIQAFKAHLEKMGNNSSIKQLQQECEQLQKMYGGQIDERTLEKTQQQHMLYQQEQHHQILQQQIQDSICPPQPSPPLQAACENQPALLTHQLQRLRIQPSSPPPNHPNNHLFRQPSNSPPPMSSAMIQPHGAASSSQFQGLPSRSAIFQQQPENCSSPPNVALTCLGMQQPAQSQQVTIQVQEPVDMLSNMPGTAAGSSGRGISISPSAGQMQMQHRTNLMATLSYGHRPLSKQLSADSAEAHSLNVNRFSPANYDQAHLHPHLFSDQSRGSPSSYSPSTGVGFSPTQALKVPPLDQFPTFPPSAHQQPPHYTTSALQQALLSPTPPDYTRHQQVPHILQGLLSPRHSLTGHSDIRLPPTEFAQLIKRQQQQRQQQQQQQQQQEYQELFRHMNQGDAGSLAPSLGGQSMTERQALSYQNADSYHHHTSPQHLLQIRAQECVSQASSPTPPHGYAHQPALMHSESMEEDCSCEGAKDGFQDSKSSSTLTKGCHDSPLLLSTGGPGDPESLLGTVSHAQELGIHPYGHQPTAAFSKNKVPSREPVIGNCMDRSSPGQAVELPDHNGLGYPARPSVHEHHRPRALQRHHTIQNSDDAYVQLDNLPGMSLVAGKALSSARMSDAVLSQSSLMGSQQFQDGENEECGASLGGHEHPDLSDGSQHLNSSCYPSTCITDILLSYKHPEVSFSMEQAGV

[38] = target: Ribosomal protein S6 kinase alpha-4 (Homo sapiens) (UniProt O75676)
[39] = target: Ribosomal protein S6 kinase alpha-3 (Homo sapiens) (UniProt P51812)
[40] = target: High affinity nerve growth factor receptor (Homo sapiens) (UniProt P04629)
[41] = target: NT-3 growth factor receptor (Homo sapiens) (UniProt Q16288)
[42] = target: Transient receptor potential cation channel subfamily M member 6 (Homo sapiens) (UniProt Q9BX84)
[43] = target: Testis-specific serine/threonine-protein kinase 3 (Homo sapiens) (UniProt Q96PN8)
Chain of Testis-specific serine/threonine-protein kinase 3 (Homo sapiens) (Q96PN8 whole entry): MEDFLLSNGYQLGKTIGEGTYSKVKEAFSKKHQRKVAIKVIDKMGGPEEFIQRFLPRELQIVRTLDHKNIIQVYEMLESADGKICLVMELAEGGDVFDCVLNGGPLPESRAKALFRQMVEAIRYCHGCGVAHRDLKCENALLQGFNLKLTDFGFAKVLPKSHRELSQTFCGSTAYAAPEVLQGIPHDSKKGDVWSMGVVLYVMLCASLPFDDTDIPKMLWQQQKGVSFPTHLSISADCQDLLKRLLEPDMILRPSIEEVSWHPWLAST

[44] = target: Serine/threonine-protein kinase WNK4 (Homo sapiens) (UniProt Q96J92)
[45] = target: D(3) dopamine receptor (Homo sapiens) (UniProt P35462); details: Compound concentration 10.0 uM
[46] = Compound concentration 100.0 nM
[47] = Compound concentration 1000.0 nM

## C[C@@H](NC(=O)Nc1cc2[nH]ncc2c(CO)n1)c1ccccc1 [ERKi]
[1]; [46]
  residual activity: 80.2%
[2]; [46]
  residual activity: 88.4%
[3]; [46]
  residual activity: 100%
[4]; [46]
  residual activity: 100%
[5]; [46]
  residual activity: 59.6%
[6]; [46]
  residual activity: 94.9%
[7]; [46]
  residual activity: 100%
[8]; [46]
  residual activity: 100%
[9]; [46]
  residual activity: 88.4%
[10]; [46]
  residual activity: 77.7%
[11]; [46]
  residual activity: 95.6%
[12]; [46]
  residual activity: 80.5%
[13]; [46]
  residual activity: 75.5%
[14]; [46]
  residual activity: 61.6%
[15]; [46]
  residual activity: 100%
[16]; [46]
  residual activity: 80.7%
[17]; [46]
  residual activity: 77.5%
[18]; [46]
  residual activity: 100%
[19]; [46]
  residual activity: 82.9%
[20]; [46]
  residual activity: 82.7%
[21]; [46]
  residual activity: 29%
[22]; [46]
  residual activity: 84.8%
[23]; [46]
  residual activity: 100%
[24]; [46]
  residual activity: 89.6%
[25]; [46]
  residual activity: 100%
[26]; [46]
  residual activity: 83.5%
[27]; [46]
  residual activity: 99.5%
[28]; [46]
  residual activity: 72.7%
[29]; [46]
  residual activity: 74.1%
[30]; [46]
  residual activity: 98.9%
[31]; [46]
  residual activity: 100%
[32]; [46]
  residual activity: 76.7%
[33]; [46]
  residual activity: 89%
[34]; [46]
  residual activity: 94.9%
[35]; [46]
  residual activity: 100%
[36]; [46]
  residual activity: 89.7%
[37]; [46]
  residual activity: 79.6%
[38]; [46]
  residual activity: 94.5%
[39]; [46]
  residual activity: 70%
[40]; [46]
  residual activity: 90%
[41]; [46]
  residual activity: 76.7%
[42]; [46]
  residual activity: 96.4%
[43]; [46]
  residual activity: 91.1%
[44]; [46]
  residual activity: 100%
[45]
  inhibition: -2.24%

## C[C@H](NC(=O)Nc1cc2[nH]ncc2c(CO)n1)c1ccccn1 [ERKi-NC]
[1]; [47]
  residual activity: 100%
[2]; [47]
  residual activity: 42.7%
[3]; [47]
  residual activity: 94.4%
[4]; [47]
  residual activity: 100%
[5]; [47]
  residual activity: 100%
[6]; [47]
  residual activity: 100%
[7]; [47]
  residual activity: 79.8%
[8]; [47]
  residual activity: 74.6%
[9]; [47]
  residual activity: 100%
[10]; [47]
  residual activity: 81%
[11]; [47]
  residual activity: 100%
[12]; [47]
  residual activity: 100%
[13]; [47]
  residual activity: 100%
[14]; [47]
  residual activity: 100%
[15]; [47]
  residual activity: 100%
[16]; [47]
  residual activity: 100%
[17]; [47]
  residual activity: 100%
[18]; [47]
  residual activity: 100%
[19]; [47]
  residual activity: 100%
[20]; [47]
  residual activity: 100%
[21]; [47]
  residual activity: 100%
[22]; [47]
  residual activity: 95.5%
[23]; [47]
  residual activity: 100%
[24]; [47]
  residual activity: 100%
[25]; [47]
  residual activity: 100%
[26]; [47]
  residual activity: 100%
[27]; [47]
  residual activity: 100%
[28]; [47]
  residual activity: 100%
[29]; [47]
  residual activity: 100%
[30]; [47]
  residual activity: 100%
[31]; [47]
  residual activity: 100%
[32]; [47]
  residual activity: 100%
[33]; [47]
  residual activity: 68.7%
[34]; [47]
  residual activity: 63.8%
[35]; [47]
  residual activity: 100%
[36]; [47]
  residual activity: 100%
[37]; [47]
  residual activity: 100%
[38]; [47]
  residual activity: 100%
[39]; [47]
  residual activity: 80.7%
[40]; [47]
  residual activity: 81%
[41]; [47]
  residual activity: 85.4%
[42]; [47]
  residual activity: 92.7%
[43]; [47]
  residual activity: 100%
[44]; [47]
  residual activity: 100%
[45]
  inhibition: 27.9%
